Test results from ChEMBL document CHEMBL2346534, “Design, synthesis and in vitro anti-proliferative activity of 4,6-quinazolinediamines as potent EGFR-TK inhibitors” (Eur J Med Chem, 2013).

target: Epidermal growth factor receptor (Homo sapiens, UniProt P00533); conditions: at 10 µM
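Also: EGFR tyrosine kinase activity on a poly(Glu,Tyr) substrate, read out by Kinase-Glo Plus luminescence after a 40 min reaction.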
Description: Inhibition of EGFR tyrosine kinase (unknown origin) using poly (Glu,Tyr) as substrate at 10 uM after 40 mins by Kinase-Glo Plus luminescence kinase assay

Chain of Epidermal growth factor receptor (P00533 whole entry): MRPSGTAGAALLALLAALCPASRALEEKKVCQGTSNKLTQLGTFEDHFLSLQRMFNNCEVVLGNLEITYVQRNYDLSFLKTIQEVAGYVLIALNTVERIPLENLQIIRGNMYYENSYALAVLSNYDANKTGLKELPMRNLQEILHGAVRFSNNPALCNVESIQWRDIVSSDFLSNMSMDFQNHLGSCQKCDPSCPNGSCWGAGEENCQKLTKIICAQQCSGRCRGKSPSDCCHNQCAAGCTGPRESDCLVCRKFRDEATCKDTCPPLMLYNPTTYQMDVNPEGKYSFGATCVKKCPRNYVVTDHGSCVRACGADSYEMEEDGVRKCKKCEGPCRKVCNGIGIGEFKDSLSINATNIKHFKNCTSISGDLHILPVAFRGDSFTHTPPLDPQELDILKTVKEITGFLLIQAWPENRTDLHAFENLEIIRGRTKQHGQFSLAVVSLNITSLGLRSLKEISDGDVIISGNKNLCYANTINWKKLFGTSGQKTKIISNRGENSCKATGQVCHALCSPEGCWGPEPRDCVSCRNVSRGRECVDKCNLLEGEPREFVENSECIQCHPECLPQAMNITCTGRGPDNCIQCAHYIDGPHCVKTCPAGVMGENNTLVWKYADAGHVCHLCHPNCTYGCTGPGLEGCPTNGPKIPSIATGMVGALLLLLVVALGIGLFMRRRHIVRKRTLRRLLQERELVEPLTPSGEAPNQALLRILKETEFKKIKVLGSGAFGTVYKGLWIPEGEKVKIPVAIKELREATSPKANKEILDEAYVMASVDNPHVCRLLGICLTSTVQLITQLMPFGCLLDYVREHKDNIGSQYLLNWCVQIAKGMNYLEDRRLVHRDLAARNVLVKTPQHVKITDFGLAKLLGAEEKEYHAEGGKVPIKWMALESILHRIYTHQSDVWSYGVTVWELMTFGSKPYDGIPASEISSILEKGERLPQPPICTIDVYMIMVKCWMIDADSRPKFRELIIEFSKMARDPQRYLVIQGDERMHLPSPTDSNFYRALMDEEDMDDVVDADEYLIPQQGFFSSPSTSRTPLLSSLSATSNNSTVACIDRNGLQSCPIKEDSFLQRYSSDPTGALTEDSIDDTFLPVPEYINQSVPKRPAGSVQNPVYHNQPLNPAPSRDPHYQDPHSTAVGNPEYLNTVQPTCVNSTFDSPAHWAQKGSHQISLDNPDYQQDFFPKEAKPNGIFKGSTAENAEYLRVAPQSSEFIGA

Row | inhibition [%] | Compound
1 | 100 | CCOC(=O)/C(C#N)=C\Nc1ccc2ncnc(Nc3ccc(O)cc3)c2c1
2 | 100 | CCOC(=O)C(=CNc1ccc2ncnc(Nc3ccc(O)cc3)c2c1)C(=O)OCC
3 | 100 | C#Cc1cccc(Nc2ncnc3ccc(NC=C(C(=O)OCC)C(=O)OCC)cc23)c1
4 | 90 | CCOC(=O)C(=CNc1ccc2ncnc(Nc3ccc(Cl)cc3Cl)c2c1)C(=O)OCC
5 | 82 | CCOC(=O)C(=CNc1ccc2ncnc(Nc3ccc(Cl)cc3)c2c1)C(=O)OCC
6 | 100 | CCOC(=O)/C(C#N)=C\Nc1ccc2ncnc(Nc3cccc(Br)c3)c2c1
7 | 90 | Nc1ccc2ncnc(Nc3ccccc3Cl)c2c1
8 | 100 | CCOC(=O)C(=CNc1ccc2ncnc(Nc3ccccc3Cl)c2c1)C(=O)OCC
9 | 100 | CCOC(=O)C(=CNc1ccc2ncnc(Nc3cccc(Br)c3)c2c1)C(=O)OCC
10 | 100 | CCOC(=O)/C(C#N)=C\Nc1ccc2ncnc(Nc3cccc(O)c3)c2c1
11 | 84 | CCOC(=O)/C(C#N)=C\Nc1ccc2ncnc(Nc3ccccc3CC)c2c1
